Measurements from patent publication US20210029993A1, “SPATIAL INHIBITORS, DETERRENTS AND REPELLENTS FOR MOSQUITOES AND MIDGES” (BEDOUKIAN RESEARCH, INC., priority 2005, published 2021).

What was measured:
mosquitoes [1] = assay: Spatial inhibition of mosquitoes, outdoor Mosquito Magnet Liberty Plus trap catch; type: in vivo; conditions: two grams of test compound on absorbent material in CO2 and r-octenol stream of trap; 2-5 days; FIG. 5
Method: Two grams of test compound was absorbed onto pieces of absorbent material. These pieces of absorbent material (fragrance release material from Rhopore Inc.) containing absorbed test compound were then placed in a stream of CO2 and r-octenol being released from an American Biophysics Mosquito Magnet Liberty Plus mosquito trap designed to attract mosquitoes. The test were rotated over a period of 2-5 days in such a manner that both control (trap without test compound) and test compound were tested an equal number of times in each trap employed. The number of mosquitoes caught in the traps with test compounds was compared to the number of mosquitoes caught in the trap with no test compound material present. […] Thus, a lowered percentage is indicative of the increasing ability of the test compounds to inhibit the ability of the mosquitoes sense the target. […] In Table 3, weight percent (wt %) refers to the weight of the deterring/repelling/inhibiting compound, or combination of compounds, in the composition used in the tests. In the “Percent Caught Relative to Control” column in Table 3, a lower percentage is indicative of the increasing ability of the test compounds to inhibit the ability of the mosquitoes sense the target. The weight ratio of the compounds in the combination of compounds is given in parentheses in the “Compound(s)” column of Table 3.

[2] = system: female mosquitoes (Aedes aegypti); assay: Mosquitoes feeding test (Plexiglas module, treated membrane over dyed sucrose/ATP solution); type: in vivo; conditions: feeding relative to control, FIGS. 1 and 3
Method: (§1) The test was conducted at 0900-2100 hours in a walk-in incubator (26° C., 63-80% RH) illuminated by fluorescent lights. Mosquitoes were tested in a two-piece Plexiglas module designed to assess their response to feeding deterrents. The bottom piece of the module was 40×7×4-cm hollow platform supporting six circular wells (diameter=3.8 cm, depth=6 mm). Water (40° C.) flowed through the central cavity of the platform at a rate of 215 ml/min. The top piece of the module consisted of six 4.5×4.0×5.0 cm chambers, the floors of which were fitted with a sliding door positioned over a circular opening 3.5 cm in diameter. Mosquitoes were introduced through an aperture 1 cm in diameter on the front wall of the chambers. For each test, five female mosquitoes (Aedes aegypti) were aspirated into each of five chambers of the top module piece and the apertures were plugged with corks wrapped in plastic film. The wells on the bottom piece of the module were filled with 7 ml of 10% sucrose solution containing ATP (2.9 mg/ml). To each well, 75 μl of green dye (McCormick Food, Hunt Valley, Md.) were added so that those mosquitoes imbibing the sugar solution could be identified when crushed at the end of the tests. Each membrane received 50 ul of acetone or experimental compound solution, applied to 9.6 cm^2 circular area on 0.1 mm-thick membranes made of nylon mesh in a silicone matrix. The membranes were then placed over each well in contact with the sugar solution.
(§2) The circular openings on the floor of each chamber of the top piece of the module were aligned with each membrane-covered well of the bottom piece. The sliding floors of the chambers were then opened allowing mosquitoes access to the membranes. The number of mosquitoes landing on the membranes, and those flying within the apparatus, were recorded each minute for five minutes. After five minutes, any mosquitoes remaining on the membranes were removed with a metal wire, and the door of the floor of each chamber was closed. The top piece of the module was then placed into a freezer for 20 minutes. In the test designed to assess feeding, mosquitoes were removed from the frozen module, crushed on white paper towels, and examined for the presence of green dye to indicate that feeding had occurred. The proportions of mosquitoes feeding per trial were analyzed using a standard generalized linear model with a logit link. Landing and flying scores are repeated measures; five reading were obtained for groups of five mosquitoes. Thus, to maintain independence among the data, the five readings were summed, and then the sums divided by 25 (the maximum score in each category) to create proportions of mosquitoes landing and flying. The proportions were then transferred using the standard variance stabilizing transformation for proportions (sin^−1 √y, where y is the proportion), and analyzed using ANOVA (Analysis of Variables)
In Table 1, weight percent (wt %) refers to the weight of the deterring/repelling/inhibiting compound, or combination of compounds, in the composition used in the tests. […] The weight ratio of the compounds in the combination of compounds is given in parentheses in the “Compound(s)” column of Table 1.

[3] = system: female mosquitoes (Aedes aegypti); assay: Mosquitoes flying test (Plexiglas module, mosquitoes flying within the apparatus); type: in vivo; conditions: flying relative to control, FIGS. 2 and 4
Method: as §1, §2
In Table 2, weight percent (wt %) refers to the weight of the deterring/repelling/inhibiting compound, or combination of compounds, in the composition used in the tests. […] The weight ratio of the compounds in the combination of compounds is given in parentheses in the “Compound(s)” column of Table 2.

mosquitoes [4] = assay: Limonene tested against mosquitoes (background); type: in vivo; conditions: background statement
[5] = system: mosquitoes and biting midges; conditions: related art; cited from earlier work

cis and trans carveol
percent mosquitoes caught relative to the control (relative catch) (mosquitoes [1]): about 43% | contact mosquito repellent activity (feeding tests, FIGS. 1 and 3), in words [2]: especially effective as contact mosquito repellents

(+)/(−) limonene oxide
spatial inhibitor activity for mosquitoes (flying tests, FIGS. 2 and 4), in words [3]: particularly effective as spatial inhibitors for mosquitoes | contact mosquito repellent activity (feeding tests, FIGS. 1 and 3), in words [2]: especially effective as contact mosquito repellents

C=C(C)C1CC=C(C)CC1 (stereo not drawn) [limonene]
repellent or spatial inhibitor efficacy against mosquitoes, in words (mosquitoes [4]): not found to be either an effective repellent or spatial inhibitor

C=CC(C)(O)CCC=C(C)C (stereo not drawn) [linalool]
spatial inhibitor efficacy, in words [5]: act as spatial inhibitors
